# Results as given in patent publication US7432365B1, “DNA molecules encoding beta clamp proteins of gram positive bacteria” (priority 1998, dated 2008).
# B1: Streptococcus pyogenes δ subunit (holA gene product) (other)
# chain: MIAIEKIEKLSKENLGLITLVTGDDIGQYSQLKSRLMEQIAFDKDDLAYSYFDMSEAAYQDAEMDLVSLPFFAEQKVVIFDHLLDITTNKKSFLKEKDLKAFEAYLENPLETTRLIIFAPGKLDSKRRLVKLLKRDALVLEANPLKEAELRTYFQKYSHQLGLGFESGAFDQLLLKSNDDFSQIMKNMAFLKAYKKTGNISLTDIEQAIPKSLQDNIFDLTRLVLGGKIDAARDLIHDLRLSGEDDIKLIAIMLGQFRLFLQLTILARDVKNEQQLVISLSDILGRRVNPYQVKYALKDSRTLSLAFLTGAVKTLIETDYQIKTGLYEKSYLVDIALLKIMTHSQK
# notes: also called delta; putative δ
# B2: Streptococcus pyogenes τ subunit (dnaX gene product) (other)
# chain: MYQALYRKYRSQTFDEMVGQSVISTTLKQAVESGKISHAYLFSGPRGTGKTSAAKIFAKAMNCPNQVDGEPCNQCDICRDITNGSLEDVIEIDAASNNGVDEIRDIRDKSTYAPSRATYKVYIIDEVHMLSTGAFNALLKTLEEPTENVFILATTELHKIPATILSRVQRFEFKAIKQKAIREHLAWVLDKEGIAYEVDALNLIARRAEGGMRDALSILDQALSLSPDNQVAIAIAEEITGSISILALGDYVRYVSQEQATQALAALETIYDSGKSMSRFATDLLTYLRDLLVVKAGGDNQRQSAVFDTNLSLSIDRIFQMITVVTSHLPEIKKGTHPRIYAEMMTIQLAQKEQILSQVNLSGELISEIETLKNELAQLKQQLSQLQSRPDSLARSDKTKPKTTSYRVDRVTILKIMEETVRNSQQSRQYLDALKNAWNEILDNISAQDRALLMGSEPVLANSENAILAFEAAFNAEQVMSRNNLNDMFGNIMSKAAGFSPNILAVPRTDFQHIRKEFAQQMKSQKDSVQEEQEVALDIPEGFDFLLDKINTIDD
# notes: also called tau; DnaX-protein
# Experiments:
# Peak2 (Pol II) = assay: DNA polymerase assay in presence or absence of pCMB, NEM, 0.15 M KCl; format: biochemical, Staphylococcus aureus; details: S. aureus Peak2
# Experimental: (§1) These assays were used in the purification of DNA polymerases from S. aureus cell extracts. Assays contained 2.5 μg activated calf thymus DNA in a final volume of 25 μl replication buffer. An aliquot of the fraction to be assayed was added to the assay mixture on ice followed by incubation at 37° C. for 5 min. DNA synthesis was quantitated using DE81 paper as described in Rowen et al., “Primase, the DnaG Protein of Escherichia coli. An Enzyme Which Starts DNA Chains,” J. Biol. Chem., 253:758-764 (1979), which is hereby incorporated by reference.
# (§2) Next, it was determined which of these peaks of DNA polymerase activity correspond to DNA polymerases 1, I, and III, and which peak is the unidentified DNA polymerase. In the Gram positive bacterium B. subtilis, Pol III is inhibited by pCMB, NEM, and 0.15 M NaCl, Pol II is inhibited by KCl, but not NEM or 0.15 M KCL, and Pol I is not inhibited by any of these treatments (Gass et al., “Further Genetic and Enzymological Characterization of the Three Bacillus subtilis Deoxyribonucleic Acid Polymerases,” J. Biol. Chem., 248:7688-7700 (1973), which is hereby incorporated by reference).
# Pol II = details: cited from earlier work
# Pol III-L = Pol III-L (Bacillus subtilis, UniProt P13267); details: Pol III / Pol III-L; cited from earlier work
# Peak4 (Pol III-L) = target: T1, Peak4 (Pol III-L) (Staphylococcus aureus, UniProt P0C1P9); assay: DNA polymerase assay in presence or absence of pCMB, NEM, 0.15 M KCl; format: biochemical; details: S. aureus Peak4
# T1 construct: peak 4 (last peak off Mono Q); endogenous in cells; host or cells: S. aureus strain 4220 lysate, MonoQ peak 4 (partially pure)
# T1 sequence (P0C1P9 1-1435): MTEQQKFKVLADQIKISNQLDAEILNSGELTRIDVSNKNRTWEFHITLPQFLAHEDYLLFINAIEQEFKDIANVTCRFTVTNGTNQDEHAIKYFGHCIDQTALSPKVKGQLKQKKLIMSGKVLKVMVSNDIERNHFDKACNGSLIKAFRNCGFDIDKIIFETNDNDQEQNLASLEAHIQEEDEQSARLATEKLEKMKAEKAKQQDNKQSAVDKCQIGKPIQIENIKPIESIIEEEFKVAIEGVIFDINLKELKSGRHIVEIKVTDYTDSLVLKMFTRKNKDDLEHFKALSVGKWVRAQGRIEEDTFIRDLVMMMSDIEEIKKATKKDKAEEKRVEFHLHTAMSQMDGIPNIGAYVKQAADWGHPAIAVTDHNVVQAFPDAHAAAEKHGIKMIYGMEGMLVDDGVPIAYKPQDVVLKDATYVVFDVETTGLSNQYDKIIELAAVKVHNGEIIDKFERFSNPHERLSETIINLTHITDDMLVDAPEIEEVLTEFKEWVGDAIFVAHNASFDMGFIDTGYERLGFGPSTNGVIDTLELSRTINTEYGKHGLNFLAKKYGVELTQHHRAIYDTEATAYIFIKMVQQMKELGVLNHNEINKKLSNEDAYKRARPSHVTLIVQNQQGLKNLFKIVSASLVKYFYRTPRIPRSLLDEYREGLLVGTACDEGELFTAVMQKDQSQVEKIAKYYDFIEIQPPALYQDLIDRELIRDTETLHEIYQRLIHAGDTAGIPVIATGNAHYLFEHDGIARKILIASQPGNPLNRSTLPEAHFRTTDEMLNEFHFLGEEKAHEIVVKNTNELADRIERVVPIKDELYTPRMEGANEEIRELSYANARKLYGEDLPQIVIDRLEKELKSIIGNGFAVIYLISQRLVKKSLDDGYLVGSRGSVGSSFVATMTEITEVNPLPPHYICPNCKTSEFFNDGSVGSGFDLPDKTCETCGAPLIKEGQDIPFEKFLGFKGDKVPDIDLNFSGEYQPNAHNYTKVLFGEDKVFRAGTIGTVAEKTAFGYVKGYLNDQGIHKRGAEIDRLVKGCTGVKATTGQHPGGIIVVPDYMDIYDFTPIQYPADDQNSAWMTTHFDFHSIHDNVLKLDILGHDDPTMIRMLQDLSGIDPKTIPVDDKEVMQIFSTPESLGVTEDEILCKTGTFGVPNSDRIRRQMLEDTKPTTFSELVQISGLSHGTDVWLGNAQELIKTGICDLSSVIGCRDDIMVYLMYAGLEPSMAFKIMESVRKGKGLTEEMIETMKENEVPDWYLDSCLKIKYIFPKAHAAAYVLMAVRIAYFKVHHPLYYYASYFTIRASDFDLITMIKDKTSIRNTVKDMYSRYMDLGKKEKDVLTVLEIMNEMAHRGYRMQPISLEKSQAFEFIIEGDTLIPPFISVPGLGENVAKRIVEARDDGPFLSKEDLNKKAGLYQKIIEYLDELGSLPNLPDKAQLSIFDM
# Experimental: as §1, §2
# Pol I = Pol I (Bacillus subtilis, UniProt O34996); details: cited from earlier work
# Peak1 (new polymerase) = assay: DNA polymerase assay in presence or absence of pCMB, NEM, 0.15 M KCl; format: biochemical, Staphylococcus aureus; details: S. aureus Peak1
# Experimental: (§3) These assays were used in the purification of DNA polymerases from S. aureus cell extracts. Assays contained 2.5 μg activated calf thymus DNA in a final volume of 25 μl replication buffer. An aliquot of the fraction to be assayed was added to the assay mixture on ice followed by incubation at 37° C. for 5 min.
# (§4) Next, it was determined which of these peaks of DNA polymerase activity correspond to DNA polymerases 1, I, and III, and which peak is the unidentified DNA polymerase. In the Gram positive bacterium B. subtilis, Pol III is inhibited by pCMB, NEM, and 0.15 M NaCl, Pol II is inhibited by KCl, but not NEM or 0.15 M KCL, and Pol I is not inhibited by any of these treatments (Gass et al., “Further Genetic and Enzymological Characterization of the Three Bacillus subtilis Deoxyribonucleic Acid Polymerases,” J. Biol. Chem., 248:7688-7700 (1973), which is hereby incorporated by reference). […] Peak 3 clearly corresponded to Pol I, because it was not inhibited by NEM, pCMB, or 0.15 M NaCl. Peak 2 correspond to Pol II, because it was not inhibited by NEM, but was inhibited by pCMB and 0.15 M NaCl. Peaks 1 and 4 both had characteristics that mimic Pol III; however, peak 4 elutes on MonoQ at a similar position as Pol III-L expressed in E. coli (see FIG. 2B).
# Peak3 (Pol I) = assay: as above; format: biochemical, Staphylococcus aureus; details: S. aureus Peak3
# Experimental: as §3, §4
# [1] = target: Staphylococcus aureus beta subunit (dnaN gene product) (Staphylococcus aureus) (UniProt P0A022); assay: cell-based or functional assay
# [2] = target: T2, Streptococcus pyogenes δ′ subunit (holB gene product) (Streptococcus pyogenes); assay: gel filtration on Superose 6 of an α-large, τ, δ, δ′ mixture, SDS-PAGE of fractions
# T2 construct: also called delta prime; 6′
# T2 chain: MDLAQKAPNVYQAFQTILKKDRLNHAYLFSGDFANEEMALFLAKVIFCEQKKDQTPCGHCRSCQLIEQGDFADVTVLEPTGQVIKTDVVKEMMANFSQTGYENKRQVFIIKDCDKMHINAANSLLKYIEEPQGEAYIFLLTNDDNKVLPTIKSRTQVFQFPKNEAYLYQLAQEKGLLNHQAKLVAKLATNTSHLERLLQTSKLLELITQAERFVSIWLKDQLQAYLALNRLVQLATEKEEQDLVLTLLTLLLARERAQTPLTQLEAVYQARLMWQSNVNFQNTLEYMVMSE
# [3] = target: B1; assay: gel filtration on Superose 6 in buffer A with 100 mM NaCl, SDS-PAGE of fractions
# [4] = target: T2, Streptococcus pyogenes δ′ subunit (holB …); assay: as above
# Pol III-L, sequence (P13267 whole entry): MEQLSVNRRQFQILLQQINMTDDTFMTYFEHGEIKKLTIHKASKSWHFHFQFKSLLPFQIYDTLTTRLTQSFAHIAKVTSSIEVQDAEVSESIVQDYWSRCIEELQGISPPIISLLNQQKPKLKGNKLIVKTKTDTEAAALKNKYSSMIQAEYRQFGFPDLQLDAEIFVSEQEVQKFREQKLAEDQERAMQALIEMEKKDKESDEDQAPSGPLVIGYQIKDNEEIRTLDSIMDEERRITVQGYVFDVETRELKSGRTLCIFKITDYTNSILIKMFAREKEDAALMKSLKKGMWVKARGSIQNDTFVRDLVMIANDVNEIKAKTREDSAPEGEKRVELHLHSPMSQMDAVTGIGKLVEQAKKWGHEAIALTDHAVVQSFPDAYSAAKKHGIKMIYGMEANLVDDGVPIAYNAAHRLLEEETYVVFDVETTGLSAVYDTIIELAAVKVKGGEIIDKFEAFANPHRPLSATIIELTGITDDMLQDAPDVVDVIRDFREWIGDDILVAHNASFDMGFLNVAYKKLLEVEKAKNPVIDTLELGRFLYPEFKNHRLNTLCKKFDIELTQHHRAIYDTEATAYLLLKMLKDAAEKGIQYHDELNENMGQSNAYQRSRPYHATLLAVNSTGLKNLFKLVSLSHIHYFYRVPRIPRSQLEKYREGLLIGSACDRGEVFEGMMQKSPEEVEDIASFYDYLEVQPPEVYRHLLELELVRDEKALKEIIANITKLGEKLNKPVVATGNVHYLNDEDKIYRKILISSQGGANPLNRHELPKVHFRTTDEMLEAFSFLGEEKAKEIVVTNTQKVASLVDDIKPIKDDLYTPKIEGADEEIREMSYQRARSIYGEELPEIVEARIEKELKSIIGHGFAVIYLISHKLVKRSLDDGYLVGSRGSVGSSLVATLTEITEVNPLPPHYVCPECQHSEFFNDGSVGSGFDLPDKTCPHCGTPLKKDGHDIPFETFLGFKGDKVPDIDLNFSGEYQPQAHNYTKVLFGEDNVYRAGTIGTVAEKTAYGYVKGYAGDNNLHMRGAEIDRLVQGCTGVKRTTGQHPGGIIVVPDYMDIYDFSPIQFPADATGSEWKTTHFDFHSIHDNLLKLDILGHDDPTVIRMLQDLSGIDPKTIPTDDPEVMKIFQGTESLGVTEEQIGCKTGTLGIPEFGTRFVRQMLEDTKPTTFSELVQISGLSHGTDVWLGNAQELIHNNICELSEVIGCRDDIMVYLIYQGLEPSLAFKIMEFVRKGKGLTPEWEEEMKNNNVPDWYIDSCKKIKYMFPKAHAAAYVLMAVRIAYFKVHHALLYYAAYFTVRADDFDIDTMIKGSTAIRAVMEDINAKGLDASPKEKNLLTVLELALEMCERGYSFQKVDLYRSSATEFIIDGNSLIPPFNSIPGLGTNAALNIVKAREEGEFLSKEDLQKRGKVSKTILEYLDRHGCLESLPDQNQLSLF
# Pol I, sequence (O34996 whole entry): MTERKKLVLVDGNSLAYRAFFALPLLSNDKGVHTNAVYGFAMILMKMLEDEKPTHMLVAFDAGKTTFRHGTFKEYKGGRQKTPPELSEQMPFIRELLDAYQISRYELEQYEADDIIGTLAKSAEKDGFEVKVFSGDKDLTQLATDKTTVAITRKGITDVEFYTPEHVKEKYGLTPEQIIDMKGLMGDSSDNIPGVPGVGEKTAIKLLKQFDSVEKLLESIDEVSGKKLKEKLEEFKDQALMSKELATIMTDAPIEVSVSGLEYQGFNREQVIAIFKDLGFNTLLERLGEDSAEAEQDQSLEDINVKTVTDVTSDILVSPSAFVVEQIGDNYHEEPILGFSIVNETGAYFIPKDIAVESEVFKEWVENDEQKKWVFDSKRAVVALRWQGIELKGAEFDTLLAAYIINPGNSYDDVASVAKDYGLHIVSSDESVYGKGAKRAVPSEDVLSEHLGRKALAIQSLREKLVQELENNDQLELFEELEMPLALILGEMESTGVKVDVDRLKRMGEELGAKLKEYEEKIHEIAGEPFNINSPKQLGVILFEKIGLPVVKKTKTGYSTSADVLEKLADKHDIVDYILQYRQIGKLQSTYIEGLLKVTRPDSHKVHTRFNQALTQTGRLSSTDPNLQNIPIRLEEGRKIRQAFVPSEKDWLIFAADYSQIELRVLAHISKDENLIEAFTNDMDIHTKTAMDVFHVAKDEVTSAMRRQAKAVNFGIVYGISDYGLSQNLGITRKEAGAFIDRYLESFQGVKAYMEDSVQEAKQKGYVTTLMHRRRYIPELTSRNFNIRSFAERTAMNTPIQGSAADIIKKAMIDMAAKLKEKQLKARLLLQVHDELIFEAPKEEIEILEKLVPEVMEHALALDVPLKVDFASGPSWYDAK
Molecule,Observed characteristics: inhibition of polymerase activity (Peak2 (Pol II)),Expected characteristics: inhibition of polymerase activity (Pol II),Expected characteristics: inhibition of polymerase activity (Pol III-L),Observed characteristics: inhibition of polymerase activity (Peak4 (Pol III-L)),Expected characteristics: inhibition of polymerase activity (Pol I),Observed characteristics: inhibition of polymerase activity (Peak1 (new polymerase)),Observed characteristics: inhibition of polymerase activity (Peak3 (Pol I)),further results
O=C(O)c1cc[c]([Hg][Cl])cc1 [pCMB],inhibited (Inhibited is defined as less than 40% remaining activity),inhibited** (Inhibited is defined as less than 40% remaining activity),inhibited (Inhibited is defined as less than 40% remaining activity),inhibited (Inhibited is defined as less than 40% remaining activity),not inhibited* (Not inhibited is defined as greater than 75% remaining activity),inhibited (Inhibited is defined as less than 40% remaining activity),not inhibited (Not inhibited is defined as greater than 75% remaining activity),–
CCN1C(=O)C=CC1=O [NEM],not inhibited (Not inhibited is defined as greater than 75% remaining activity),not inhibited (Not inhibited is defined as greater than 75% remaining activity),inhibited (Inhibited is defined as less than 40% remaining activity),inhibited (Inhibited is defined as less than 40% remaining activity),not inhibited (Not inhibited is defined as greater than 75% remaining activity),inhibited (Inhibited is defined as less than 40% remaining activity),not inhibited (Not inhibited is defined as greater than 75% remaining activity),–
"Escherichia coli clamp loader complex (gamma complex: gamma, delta, delta prime, chi, psi) (from UniProt P06710 2-431; P28630 1-343; P28631 1-334; P28905 1-147; P28632 1-137)",–,–,–,–,–,–,–,"Total DNA synthesis on circular singly primed M13mp18 ssDNA, lane 3 (Pol III-L, S. aureus beta and E. coli clamp loader complex; lane 1 Pol III-L alone 0.6 pmol) [1]: 0.99 pmol"
B1,–,–,–,–,–,–,–,binding result [2]: binds
B2,–,–,–,–,–,–,–,binding result [3]: no binding (tested: δ (200 µg) in 100 µl); binding result [4]: no binding (tested: δ′ (200 µg) in 100 µl)
